Data: patent US20050159390A1, “Treatment and prevention of HIV and other viral infections” (priority 1998, published 2005)

What was measured:
TNFα = TNFα production in latently infected promonocytic U1 cells, ELISA; assay type: cell-based; settings: read-out: Inhibition of TNFα Production % of Control
Experimental: TNFα production was determined by an enzyme linked immunosorbent assay (ELISA) in a competitive format, using a commercially available anti-TNFα antibody. Inhibition of TNFα production is reported as percent of saline control in Table 18 and was dose dependent.

DU-145 = assay: Cell proliferation in treated cell lines; assay type: cell-based, human; settings: treated cell line; 0 to 200 μM or 1000 μM
X4 strain LAI/IIIB = assay: RT activity in infected PBMCs treated with carbohydrates; assay type: cell-based, HIV; settings: summary of Table 17
Experimental: Reverse Transcriptase Activity Assay: A microtiter based reverse transcriptase (RT) reaction was utilized as described by Buckheit et al., (1991), AIDS Research and Human Retroviruses, 7: 295-302. Tritiated thymidine triphosphate (3H-TTP) was suspended in distilled H2O at 5 Ci/mL. Poly rA and oligo dT were prepared as a stock solution which was kept at −20° C. RT reaction buffer was prepared fresh on a daily basis and contained 125 μL 1M EGTA, 125 μL dH2O, 110 μL 10% SDS, 50 μL 1M Tris (pH 7.4), 50 μL 1M DTT, and 40 μL 1M MgCl2. These three solutions were mixed together in a ratio of 2 parts 3H-TTP, 1 part poly rA:oligo dT, and 1 part reaction buffer. Ten microliters of this reaction mixture were placed in a round bottom microtiter plate and 15 μL of virus containing supernatant were added and mixed. The plate was incubated at 37° C. in a water bath with a solid support to prevent submersion of the plate and incubated for 60 minutes. […] Opti-Fluor-O (Packard) was added to each sample and incorporated radioactivity was quantified utilizing a Wallac 1450 MicroBeta Plus liquid scintillation counter. […]
No carbohydrates were added to the control sample. RT activity was determined at 3, 6, 9, 13, 17, and 20 days post-infection (PI) with X4 strain LAI/IIIB.

HIV-1IIIB = assay: CEM-SS cell-based assay, inhibition of HIV-induced cell killing (XTT); settings: 3.2 μM to 1 mM
HSF = assay: Cell proliferation in treated cell lines; assay type: cell-based, Human; settings: treated cell line; 0 to 200 μM or 1000 μM
PBMCs = assay type: cell-based, human; settings: human, 6 days
Experimental: For the standard PBMC assay, PHA-P stimulated cells from at least two normal donors were pooled, diluted in fresh medium to a final concentration of 1×10^6 cells/mL, and plated in the interior wells of a 96 well round bottom microplate at 50 μL/well (5×10^4 cells/well). Test drug dilutions were prepared at a 2× concentration in microfuge tubes and 100 μL of each concentration was placed in appropriate wells in a standard format. A predetermined dilution of virus stock was placed in each test well (50 μL, final MOI≅0.1). Wells with cells and virus alone were used for virus control. Separate plates were prepared identically without virus for drug cytotoxicity studies using an XTT assay system. […]
Tetrazolium dye staining of screening plates: After 6 days of incubation (37° C. with 5% CO2), the test plates were analyzed by staining with the tetrazolium dye XTT (2,3-b (2-methoxy-4-nitro-5-sulfophenyl)-2H-tetrazolium-5-carboxanilide). XTT-tetrazolium is metabolized by mitochondrial enzymes of metabolically active cells to a soluble formazan product, allowing the rapid quantitative analysis of the inhibition of HIV-induced cell killing by anti-HIV compounds. […] Plates were sealed with adhesive plate sealers and inverted several times to mix the soluble formazan product and the plate was read spectrophotometrically at 450 nm with a Molecular Devices Vmax plate reader. […]

HIV-1RF = assay: CEM-SS cell-based assay, inhibition of HIV-induced cell killing (XTT); settings: 3.2 μM to 1 mM
Experimental: Cell Preparation: Prior to infection, CEM-SS cells were grown in complete tissue culture medium (RPMI 1640 medium with 10% heat-inactivated fetal bovine serum, 2 mM L-glutamine, 100 U/mL penicillin, 100 μg/mL streptomycin, 10 μg/mL gentamycin) and transferred to T-150 flasks. On the day preceding the assay, the cells were split 1:2 to assure the cells would be in an exponential growth phase at time of infection. On the day of assay, the cells were washed twice with tissue culture medium and resuspended in fresh tissue culture medium. […]
Virus Preparation: Pre-tittered aliquots of HIV-1ROJO and HIV-1RF were removed from the freezer (−80° C.) and thawed to room temperature in a biological safety cabinet. The virus was resuspended and diluted into tissue culture medium such that the amount of virus added to each well in a volume of 50 μL will be the amount determined to give complete cell killing at 6 days post-infection.
Tetrazolium dye staining of screening plates: After 6 days of incubation (37° C. with 5% CO2), the test plates were analyzed by staining with the tetrazolium dye XTT (2,3-b (2-methoxy-4-nitro-5-sulfophenyl)-2H-tetrazolium-5-carboxanilide). XTT-tetrazolium is metabolized by mitochondrial enzymes of metabolically active cells to a soluble formazan product, allowing the rapid quantitative analysis of the inhibition of HIV-induced cell killing by anti-HIV compounds. […]

HIV-1 MN = assay: P-24 assay, syncytia and CPE in infected PBMCs; assay type: cell-based
Experimental: PBMCs were isolated as described above and incubated with HIV-1 MN (NIH AIDS reagent program, catalog #137) at 37° C. for 3 hours in 15 mL tubes. Test groups included uninfected PBMCs, infected PBMCs with no N-glycolylneuraminic acid, and infected PBMCs plus N-glycolylneuraminic acid. […] Excess virus was removed by washing the cells with PBS one time then the cells were exposed to N-glycolylneuraminic acid. P24 output was measured using the DuPont P24 assay kit (optical density (OD) in Table 15). Syncytia formation was examined as well as cytopathic effects (CPE). […] Sample #7 (p24 123×10^6 pg HIV-1P24/ml) was excluded from the mean P24 output calculation due to a sampling error.

HepG2 = assay: Cell proliferation in treated cell lines; assay type: cell-based, human; settings: treated cell line; 0 to 200 μM or 1000 μM
HT1080 = assay: Cell proliferation in treated cell lines; assay type: cell-based, human; settings: treated cell line; 0 to 200 μM or 1000 μM
Molt-4 = assay: Cell proliferation in treated cell lines; assay type: cell-based, human; settings: treated cell line; 0 to 200 μM or 1000 μM
gp120 = target: T1, gp120 (Human immunodeficiency virus type 1 group M subtype B, UniProt P05877); assay: Inhibition of gp120 binding, HIVMN to CEM-SS cells; parameters: species or system HIV
T1 construct: host or cells: HIV MN virus added to CEM-SS cells

In the case of `O=C(CO)N[C@H]1[C@H]([C@H](O)[C@H](O)CO)OC(O)(C(=O)O)C[C@@H]1O` (some centres unmarked) [N-glycolylneuraminic acid], the inhibition at 0.1 µM (TNFα; 0.1 μM) is reported as 0%, the inhibition at 0.3 µM (TNFα; 0.3 μM) is reported as 0% and the inhibition at 10 µM (TNFα; 10 μM) is reported as 9.8%. The inhibition at 30 µM (TNFα; 30 μM) was 22.6%, the inhibition at 100 µM (TNFα; 100 μM) was 96% and the “% Confluency (day 5)” value (DU-145) was 100%. For the same compound, the “RT activity in treated cells (in words)” value (X4 strain LAI/IIIB) was “RT activity was decreased”, the anti-HIV activity (HIV-1IIIB) was “did not display anti-HIV activity” and the “% Confluency (day 5)” value (HSF) was 100%. For the same compound, the TC50 (PBMCs) was greater than 1 mM, the anti-HIV activity (HIV-1RF) was “did not display anti-HIV activity” and the CPE (HIV-1 MN; dilution 1:2) was “negative”. For the same compound, the Syncytia (HIV-1 MN; dilution 1:2) was “negative”, the CPE (HIV-1 MN; dilution 1:4) was “negative” and the Syncytia (HIV-1 MN; dilution 1:4) was “negative”. For the same compound, the CPE (HIV-1 MN; dilution 1:8) was “negative”, the Syncytia (HIV-1 MN; dilution 1:8) was “negative” and the CPE (HIV-1 MN; dilution 1:16) was “negative”. The Syncytia (HIV-1 MN; dilution 1:16) was “negative”, the CPE (HIV-1 MN; dilution 1:32) was “negative” and the Syncytia (HIV-1 MN; dilution 1:32) was “negative”. The CPE (HIV-1 MN; dilution 1:64) was “negative”, the Syncytia (HIV-1 MN; dilution 1:64) was “negative” and the “% Confluency (day 5)” value (HepG2) was 50%. For the same compound, the “% Confluency (day 5)” value (HT1080) was 100%, the “% Confluency (day 5)” value (Molt-4) was 50% and the “Inhibition of gp120 Binding (% of control)” value (“Inhibition … (% of control)” for short) (gp120; 20 μm/ml) was 9.8%. For the same compound, the “Inhibition … (% of control)” value (gp120; 80 μm/ml) was 57.6% and the “Inhibition … (% of control)” value (gp120; 200 μm/ml) was 86.8%.
